Source: article PMC10471458 (BMB Reports, 2023)

Target: T1, Glutathione S-transferase omega 1 (mGstO1) (Mus musculus, UniProt O09131)
T1 sequence (O09131 2-240): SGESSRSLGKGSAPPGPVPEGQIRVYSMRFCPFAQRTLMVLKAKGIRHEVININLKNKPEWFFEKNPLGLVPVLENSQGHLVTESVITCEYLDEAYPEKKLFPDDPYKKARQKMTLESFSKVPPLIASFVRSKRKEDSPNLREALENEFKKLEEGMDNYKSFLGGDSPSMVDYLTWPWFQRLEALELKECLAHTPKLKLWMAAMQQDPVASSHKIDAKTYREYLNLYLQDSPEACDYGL
Assay type: biochemical

spectrophotometric assay at 305 nm of 4-NPG reduction to 4-nitroacetophenone by: 10 U/mg
Compound: N[C@@H](CCC(=O)N[C@@H](CSCC(=O)c1ccc([N+](=O)[O-])cc1)C(=O)NCC(=O)O)C(=O)O [4-NPG, 4-nitrophenacyl glutathione]
